Source: patent publication US20240294570A1, “ENZYMATICALLY FORMING INTRANUCLEAR PEPTIDE ASSEMBLIES FOR SELECTIVELY KILLING INDUCED PLURIPOTENT STEM CELLS” (BRANDEIS UNIVERSITY, priority 2021, published 2024)
Non-standard residues stand in square brackets, D forms with d. Residues, ends and D or L forms follow the SMILES beside them. No end group written: not given here. *: point of attachment. pY = N[C@@H](Cc1ccc(OP(=O)(O)O)cc1)C(=O)O; NBD = O=[N+]([O-])c1ccc(*)c2nonc12; βAla = NCCC(=O)O

Experiments:
iPSCs [1] = test: CLSM imaging of peptide assemblies in iPSCs; format: cell-based, human; settings: 400 μM, 2 hours
Protocol: Confocal Laser Scanning Microscopy (CLSM) Imaging: For live cell imaging, cells in exponential growth phase were seeded in a confocal dish (3.5 cm) at 1.0×10^5 cells per dish and then incubated in incubator for 24 h. We removed culture medium, and added fresh medium containing precursors for different time points. After removing the medium and washing the cells with live cell imaging solution (2 mL×2), the cells were used for CLSM imaging. For time-dependent live cell imaging, cells in exponential growth phase were seeded in a confocal dish (3.5 cm) at 1.0×10^5 cells per dish and then incubated in incubator for 24 h. After removing culture medium, we treated the cells with 1 mL of Hoechst 33342 (1 μg mL^−1) for 10 minutes. After being washed with culture medium (2 mL×2), the cells were incubated with fresh medium containing precursor 5 in a Tokai Hit stage top incubator (STXF-WSKMX-SET) to be used for CLSM imaging. All the CLSM images were obtained using Zeiss LSM 880 confocal microscopy at the lens of 63× with oil. The lasers used are 405 nm and 488 nm.
Because the fluorescence of NBD increases drastically from unassembled to assembled state, confocal laser scanning microscopy (CLSM) was suitable to reveal the cellular location of the peptide assemblies formed after dephosphorylation catalyzed by ALP. […] The blackness in nuclei overlaps well with the strong fluorescence. […] The results confirms that the nucleus-targeting mainly originates from the ALP catalyzed dephosphorylation.
To trace the dynamics of the formation and distribution of 5 inside iPSC cells, time-lapse CLSM was also used to image the changes of the fluorescence in the iPSCs incubated by 5 (400 μM). Using one cell as a representative case, after 6 minutes incubation fluorescent puncta appear on the membrane, likely originating from the aggregates of assemblies of 5 and those of 6 generated by the dephosphorylation catalyzed by ALP. […] After 24 minutes incubation, fluorescence starts to grow in the cytoplasm. Considering the LLLLY motif in SEQ ID NO: 2 constitutes the transmembrane domains of 18 human membrane proteins, it is possible that the affinity of 5 or 6 to membrane allows the assemblies of the mixture of 5 and 6 to interact with cellular membranes, which then facilitates nuclear localization. At about 28 minutes of incubation, fluorescence appears in the nucleus. Moreover, the nuclei shrink after the assemblies emerge in the nuclei. In addition, the nuclei also show nuclear blebbing (Stephens et al., “Chromatin Histone Modifications and Rigidity Affect Nuclear Morphology Independent of Lamins,” Mol. Biol. Cell 29(2):220-233 (2018), which is hereby incorporated by reference in its entirety). The shrinkage of nuclei and nuclear blebbing likely associate with iPSC death. To further examine the dynamics of EISA-formed peptide assemblies in iPSCs over different time, the increase of fluorescence in two cells over 2 hours was monitored; their nuclei, A and B, are shown in FIG. 10A. […] The mean fluorescent intensity in Nucleus A starts to increase at 28 minutes and levels off after 110 minutes. For Nucleus B, the mean fluorescent intensity keeps increasing from 38 minutes. The increases of the fluorescence in the nuclei and nucleoli are synchronous. […] The assemblies inside the nuclei or near nuclear membrane induce nuclear blebbing and shrinkage of nuclei, which likely contributes to the cell death.

iPSCs [2] = test: Cell viability of iPSCs (trypan blue); format: cell-based, human; settings: 400 μM, 2 h
Protocol: Cell Culture: Human induced pluripotent stem cell line A21 was generated from human normal dermal fibroblasts by using the StemRNA™-NM Reprogramming kit (Stemgent, Cat #00-0076). hiPSCs were routinely cultured and passaged on 6-well plates coated with 0.25 μg/cm^2 iMatrix-511 (Recombinant Laminin-511) (ReproCell) with NutriStem XF/FFTM medium (Biological Industries). HS-5 cell line and HEK293 cell line were purchased from American Type Culture Collection (ATCC, USA). HS-5 cells were cultured in Dulbecco's Modified Eagle Medium (DMEM) supplemented with 10% fetal bovine serum (FBS), 100 U/mL penicillin and 100 μg/mL streptomycin. HEK293 cells were cultured in Minimal Essential Medium (MEM) supplemented with 10% fetal bovine serum (FBS), 100 U/mL penicillin and 100 μg/mL streptomycin. All cells were maintained at 37° C. in a humidified atmosphere of 5% CO2.
Cell Viability of iPSC's: iPSCs were plated in 6-well plates and incubated for 24 to 48 hours, then media were replaced with fresh one (2 ml) supplemented with PBS (control) 5 (200 μM, 300 μM, and 400 μM), 7 (400 μM) or 9 (400 μM), and incubated for 2 hours. Media were removed and cells were rinsed with PBS once, fresh normal cultural media were added and incubated for 30 min. All cells were collected and stained with trypan blue, live cells were counted using Cellometer Auto 2000 (Nexcelom Bioscience). Data were obtained by from three independent wells (n=3).

[3] = Critical micelle concentration (CMC) measurement with pyrene probe; format: physicochemical; settings: for CMC of the nanofiber-forming product of dephosphorylation: product after dephosphorylation at 400 μM by ALP (0.5 U/mL)
Protocol: Critical Micelle Concentration ((MC) Measurement: The CMCs were determined using pyrene as the fluorescent probe. Different concentrations of compounds were prepared in pyrene-saturate solutions. The fluorescence spectra of pyrene solutions with different concentration compounds were obtained. The intensity ratio of 378 nm/393 nm (I378/I393) was determined by a Synergy H1 hybrid multi-mode microplate reader. Plot I378/I393 against the concentrations of compounds. The concentration at the turning point is the CMC.

[4] = Enzymatic self-assembly in vitro, nanostructures by TEM; format: physicochemical; settings: for diameters of nanofibers: after dephosphorylation at 400 μM by ALP (0.5 U/mL)
Protocol: TEM Sample Preparation: After placing 5 μL samples on 400 mesh copper grids coated with continuous thick carbon film (˜35 nm) which is glowed discharged, we washed the grid with ddH2O and UA (uranyl acetate). The sample loaded grid was stained with the UA. The residual UA was removed by filter paper and then dried in air. TEM images were obtained with Morgagni 268 transmission electron microscope.
After obtaining all the precursors, their behaviors for EISA were evaluated in vitro using transmission electron microscopes (TEM) to examine the nanostructures formed before and after the ALP catalyzed dephosphorylation of precursors 5, 7, and 9. […] The critical micelle concentration (CMC) of 5 is 86.1 μM. […] The CMC of 6 is 8.1 μM. Unlike the case of 5, dephosphorylation of 7 or 9 at 400 μM by ALP (0.5 U/mL) produces nanofibers with the diameters of 6±2 nm or 9±2 nm, whose CMC is 87.4 μM or 25.8 μM, respectively.
A key requirement for selectively eliminating iPSCs by EISA is that the L-peptide nanoribbons only form on and in iPSCs, which overexpress ALP, but not on and in the differentiated cells that express normal level of ALP. That is, L-peptide nanoribbons should only rapidly form at high level of ALP, but not at normal level of ALP. […] Thus, after assessing the level of ALP expression in iPSCs, it should be possible to optimizing the initial concentration of a peptide and the time of dephosphorylation, to promote EISA that selectively targets iPSCs.

ALP = test: Dephosphorylation rate measurement (LC-MS); settings: for conversion ratio to dephosphorylated peptide / half-life at 100 μM / half-life at 200 μM: 0.5 U/mL ALP; for conversion ratio to dephosphorylated peptide: after 5 h of incubation; for half-life at 400 μM / half-life at 100 μM / half-life at 200 μM: alkaline phosphatase (ALP) in PBS; for half-life at 100 μM / half-life at 200 μM: half-life of dephosphorylation
Protocol: The reaction mixtures were analyzed with LC-MS.
Thus, the conversion of the phosphopentapeptides to their corresponding peptides was examined over time.

[5] = Degradation in HS-5 cell lysate (LC-MS)

Row | Compound | NBD fluorescence in iPSCs (location of peptide assemblies) (iPSCs [1]) | cytotoxicity against the iPSCs (iPSCs [2]) | critical micelle concentration (CMC) [3] | CMC of the nanofiber-forming product of dephosphorylation [3] | diameters of nanofibers [4] | conversion ratio to dephosphorylated peptide (ALP) | half-life at 400 μM (ALP) | half-life at 100 μM (ALP) | half-life at 200 μM (ALP) | self-assembling ability ([4]; formed from 3 upon dephosphorylation by ALP) | 6 remaining in HS-5 lysate ([5]; from 200 μM of 5, after 2 h of incubation) | 6 remaining in HS-5 lysate ([5]; from 200 μM of 5, after 4 hours incubation)
1 | CC(C)C[C@H](NC(=O)[C@H](CC(C)C)NC(=O)[C@H](Cc1ccc(OP(=O)(O)O)cc1)NC(=O)[C@H](CC(C)C)NC(=O)[C@H](CC(C)C)NC(=O)CCNc1ccc([N+](=O)[O-])c2nonc12)C(=O)O [compound 7, NBD-βA-LLpYLL] ({NBD-βAla}-LL[pY]LL-OH) | no fluorescence inside the cells | hardly exhibit cytotoxicity | 159.9 UM | 87.4 µM | 6±2 nm | 61.5% | 2.09 h | 2.12 h | 1.87 h |  |  | 
2 | 4: de-phosphorylated form of 3: NBD-bAla-Leu-Leu-Leu-Tyr (SEQ ID NO: 1) ({NBD}-[βAla]LLLY) [compound 4] |  |  |  |  |  |  |  |  |  | limited self-assembling ability |  | 
3 | CC(C)C[C@H](NC(=O)CCNc1ccc([N+](=O)[O-])c2nonc12)C(=O)N[C@@H](CC(C)C)C(=O)N[C@@H](CC(C)C)C(=O)N[C@@H](CC(C)C)C(=O)N[C@@H](Cc1ccc(O)cc1)C(=O)O [compound 6, NBD-βA-LLLLY] ({NBD-βAla}-LLLLY-OH) |  |  | 8.1 µM |  |  |  |  |  |  |  | about 20% | 6.01%
4 | CC(C)C[C@@H](NC(=O)CCNc1ccc([N+](=O)[O-])c2nonc12)C(=O)N[C@H](CC(C)C)C(=O)N[C@H](CC(C)C)C(=O)N[C@H](CC(C)C)C(=O)N[C@@H](Cc1ccc(OP(=O)(O)O)cc1)C(=O)O [compound 9, NBD-βA-llllpY] ({NBD-βAla}-[dL][dL][dL][dL][pY]-OH) | most of the cells exhibit no fluorescence inside the cells | hardly exhibit cytotoxicity | 146.8 µM | 25.8 µM | 9±2 nm | 93.3% | 0.45 h | 0.41 h | 0.36 h |  |  | 
